# Data published in patent publication US20180346731A1, “Formation of Stable Pyranoanthocyanins, and Uses Thereof as Sources of Natural Color” (Ohio State Innovation Foundation, priority 2017, published 2018).
# Tests used:
# [1] = Colorimetry (CIEL*c*h*, ΔE) of pigment solutions with ascorbic acid; type: physicochemical
# Method: (§1) The semi-purified chokeberry extract, the isolated cyanidin-3-galactoside, and the purified 5-carboxypyranocyanidin-3-galactoside were diluted in pH 3.0 citrate buffer (0.1 M adjusted with HCl) until an absorbance of 1.0 at their respective λmax was reached. Levels of AA of 250, 500, and 1000 mg/L were added using a concentrated ascorbic acid stock solution, and a control consisting of each pigment with the absence of AA was maintained. The control consisted of the pigment in the buffer in the absence of AA. An additional test was performed with the same model juice using hydrogen peroxide, a known degradation product of AA. To determine if AA bleaching was due to formation of H2O2, direct addition of it was investigated. In place of added AA, a 62.2 μL of a 0.3% peroxide solution was added to match the molar equivalency of the 500 mg/L AA level, which was 2.84 mM.
# (§2) All samples were brought to the same final volume with additional citrate buffer. […] Samples were stored in the dark at 25° C. in an incubator. UV-Vis spectrophotometry, colorimetry, and HPLC analyses were conducted over a 5 day period following the addition of ascorbic acid or hydrogen peroxide. UV-Vis spectral data was collected every hour for the first 8 hours, and then at 12 hr, and daily from that point on for 5 days. […] HPLC analyses were conducted on days 0, 1, 3, and 5. All treatments were run in triplicate.
# Using UV-Vis spectral data (5 nm steps, 380-700 nm) in combination with software written for color conversion, absorbance data was translated to CIE-L*c*h*. The calculations for CIE-L*c*h* implemented by the software used CIE relative spectral power distribution for a D65 standard illuminants and 10° observer angle function. Color data is reported as L* (lightness), c* (chroma), and h* (hue angle).
# Total color changes (ΔE) were calculated as the color change from day 0 to 5 for each respective treatment, and presented in Table 4.
# Numbers are means of 3 replications, followed by (standard deviations). ΔE: total color change from day 0 (control) to day 5.
# [2] = HPLC monitoring of pigment peaks with ascorbic acid; type: physicochemical
# Method: Prior to experimentation, pigments were evaluated for purity by using an analytical HPLC only different from the previously listed one by the use of different pumps (LC-20AD, Shimadzu, Md., US). Purified pigments were filtered using the Phenex RC 0.45 μm membranes. A binary system with 1 mL/min flow rate was used: solvent A: 4.5% formic acid in HPLC grade water and solvent B: HPLC grade acetonitrile. The gradient began with an isocratic flow of 6% solvent B for 17 minutes (elution of primary anthocyanins), increasing to 15% solvent B by 45 minutes (elution of primary pyranoanthocyanins), and to 40% solvent B by 50 minutes. A 10 μL injection volume was loaded onto a Phenomenex Kinetix 5 μm EVO C18 100 A. 150×4.6 mm column and Phenomenex Ultra UHPLC EVO C18 guard cartridge attached.
# as §1, §2
# Prepared solutions were monitored to determine the formation of potential degradation products or profile changes. Using the analytical HPLC system and conditions described, chromatograms were monitored with the max plot (260-700 nm), 490 nm (near λmax of 5-carboxypyranocyanidin-3-galactoside), and 520 nm (near ma of cyanidin-3-galactoside). A max plot of 470-520 nm was later added to standardize changes in the AUC for all three pigments and their degradation products.
# [3] = 1000 mg/L AA, listed as cyanidin-3-galactoside
compound,measurement,setting,value
"OC[C@H]1O[C@@H](Oc2cc3c(O)cc(O)cc3[o+]c2-c2ccc(O)c(O)c2)[C@H](O)[C@@H](O)[C@H]1O [Cyanidin-3-galactoside, cyanidin-3-galactoside]",Chroma Day 0,[1]; 250 mg/L AA,50.8 (0.2)
same,Chroma Day 5,[1]; 250 mg/L AA,13.9 (0.7)
same,Hue Angle Day 0,[1]; 250 mg/L AA,18.7 (0.1) °
same,Hue Angle Day 5,[1]; 250 mg/L AA,21.9 (1.2) °
same,Lightness Day 0,[1]; 250 mg/L AA,77.5 ( ).2)
same,Lightness Day 5,[1]; 250 mg/L AA,93.2 (0.3)
same,ΔE Over 5 days,[1]; 250 mg/L AA,19.3 (0.3)
same,Chroma Day 0,[1]; 500 mg/L AA,51.8 (0.0)
same,Chroma Day 5,[1]; 500 mg/L AA,10.5 (0.4)
same,Hue Angle Day 0,[1]; 500 mg/L AA,18.8 (0.0) °
same,Hue Angle Day 5,[1]; 500 mg/L AA,51.1 (2.7) °
same,Lightness Day 0,[1]; 500 mg/L AA,77.0 (0.1)
same,Lightness Day 5,[1]; 500 mg/L AA,94.4 (0.6)
same,ΔE Over 5 days,[1]; 500 mg/L AA,23.6 (0.2)
same,Chroma Day 0,[1]; 1000 mg/L AA,50.9 (0.1)
same,Chroma Day 5,[1]; 1000 mg/L AA,13.7 (1.8)
same,Hue Angle Day 0,[1]; 1000 mg/L AA,18.7 (0.1) °
same,Hue Angle Day 5,[1]; 1000 mg/L AA,77.5 (4.5) °
same,Lightness Day 0,[1]; 1000 mg/L AA,77.2 (0.3)
same,Lightness Day 5,[1]; 1000 mg/L AA,94.5 (0.7)
same,ΔE Over 5 days,[1]; 1000 mg/L AA,27.6 (0.7)
same,L* after 48 hours,"[1]; 1000 mg/L AA, 48 hours",96.4
same,Hue Angle Day 0,[1]; [3],18.7 °
same,Hue Angle Day 5,[1]; [3],77.5 °
same,Lightness Day 0,[1]; [3],77.2
same,ΔE Over 5 days,[1]; [3],27.6
same,Chroma Day 0,"[1]; Control, no AA",51.2 (0.2)
same,Chroma Day 5,"[1]; Control, no AA",46.5 (2.1)
same,Hue Angle Day 0,"[1]; Control, no AA",18.6 (0.1) °
same,Hue Angle Day 5,"[1]; Control, no AA",15.9 (1.0) °
same,Lightness Day 5,"[1]; Control, no AA",79.4
same,ΔE Over 5 days,"[1]; Control, no AA",2.6 (1.1)
same,Lightness Day 0,"[1]; Control, no AA, mean (SD), n=3",77.3 (0.1)
same,time until significant change in chroma as compared to the control,[1]; all levels of AA,2 h
same,initial hue angle,[1]; day 0,16.6 °
same,target peaks left after 1 day,"[2]; 1000 mg/L AA, HPLC",2%
same,reduction of pigment peak by day 1,"[2]; 1 g/L AA, HPLC AUC",91%
same,reduction of pigment peak by day 5,"[2]; 1 g/L AA, HPLC AUC",> 99%
